# Results as given in PubChem BioAssay AID292 (DTP/NCI, 2004).
# Values joined by “and” are separate entries in the source; they are usually repeats but may differ in a detail not shown here. Equal entries are not always repeated. Inconclusive results and toxic doses are left out.
# Test system: B6C3F1 mice, ip Sarcoma M5076, median survival T/C
# Assay: NCI In Vivo Anticancer Drug Screen. Data for tumor model Sarcoma M5076 (intraperitoneal) in B6C3F1 mice
# Settings: endpoint: median survival time, higher = longer survival
# Procedure, shortened: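 Antitumour effect is judged in tumour-bearing mice by comparing survival after compound dosing against vehicle-only animals, reported as T/C.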
# [1] = dose: 50.0 mg/kg/injection, schedule: Q04DX004 (ip), vehicle: Klucel (hydroxypropylcellulose) (HPC)
# [2] = dose: 100.0 mg/kg/injection, schedule: Q04DX004 (ip), vehicle: saline
# [3] = dose: 200.0 mg/kg/injection, schedule: Q04DX004 (ip), vehicle: saline
# [4] = dose: 50.0 mg/kg/injection, schedule: Q04DX004 (ip), vehicle: saline with Tween-80
# [5] = dose: 100.0 mg/kg/injection, schedule: Q04DX004 (ip), vehicle: saline with Tween-80
# [6] = dose: 200.0 mg/kg/injection, schedule: Q04DX004 (ip), vehicle: saline with Tween-80
# [7] = dose: 400.0 mg/kg/injection, schedule: Q04DX004 (ip), vehicle: saline with Tween-80
# [8] = dose: 37.5 mg/kg/injection, schedule: Q04DX004 (ip), vehicle: saline with Tween-80
# [9] = dose: 75.0 mg/kg/injection, schedule: Q04DX004 (ip), vehicle: saline with Tween-80
# [10] = dose: 150.0 mg/kg/injection, schedule: Q04DX004 (ip), vehicle: saline with Tween-80
# [11] = dose: 300.0 mg/kg/injection, schedule: Q04DX004 (ip), vehicle: saline with Tween-80
# [12] = dose: 25.0 mg/kg/injection, schedule: Q04DX004 (ip), vehicle: saline with Tween-80
compound,measurement,setting,value
CC1OC2CC(O)C1(O)C1=C2C(O)=C(C(N)=O)C(=N)C1=O (centres undefined),T/C,"dose: 1.25 mg/kg/injection, schedule: Q04DX004 (ip), vehicle: saline",108 % of control
same,T/C,"dose: 2.5 mg/kg/injection, schedule: Q04DX004 (ip), vehicle: saline",101 % of control
same,T/C,"dose: 5.0 mg/kg/injection, schedule: Q04DX004 (ip), vehicle: saline",100 % of control
COc1cccc(C2NC(=S)NC(=O)C2C#N)c1 (centres undefined),T/C,[1],99 % of control
same,T/C,"dose: 100.0 mg/kg/injection, schedule: Q04DX004 (ip), vehicle: Klucel (hydroxypropylcellulose) (HPC)",99 % of control
same,T/C,"dose: 200.0 mg/kg/injection, schedule: Q04DX004 (ip), vehicle: Klucel (hydroxypropylcellulose) (HPC)",95 % of control
same,T/C,"dose: 400.0 mg/kg/injection, schedule: Q04DX004 (ip), vehicle: Klucel (hydroxypropylcellulose) (HPC)",97 % of control
CC1Oc2cc3c(-c4c(O)cc(O)c5c(O)c6c(cc45)OC(C)C(C)C6=O)c(O)cc(O)c3c(O)c2C(=O)C1C (centres undefined),T/C,"dose: 0.62 mg/kg/injection, schedule: Q01DX009 (ip), vehicle: suspension in saline",102 % of control
same,T/C,"dose: 1.25 mg/kg/injection, schedule: Q01DX009 (ip), vehicle: suspension in saline",109 % of control
same,T/C,"dose: 1.25 mg/kg/injection, schedule: Q04DX004 (ip), vehicle: suspension in saline",151 % of control
same,T/C,"dose: 1.8 mg/kg/injection, schedule: Q04DX004 (ip), vehicle: suspension in saline",97 % of control and 115 % of control
same,T/C,"dose: 3.0 mg/kg/injection, schedule: Q04DX004 (ip), vehicle: suspension in saline",107 % of control and 114 % of control
same,T/C,"dose: 8.33 mg/kg/injection, schedule: Q04DX004 (ip), vehicle: suspension in saline",123 % of control
CN(C)CCC(=O)C(=Cc1ccc(O)cc1)C(=O)CCN(C)C,T/C,"dose: 25.0 mg/kg/injection, schedule: Q04DX004 (ip), vehicle: saline",103 % of control
same,T/C,"dose: 50.0 mg/kg/injection, schedule: Q04DX004 (ip), vehicle: saline",100 % of control
same,T/C,[2],104 % of control
same,T/C,[3],100 % of control
C=Cc1cc(OC)c2c(c1)c(=O)oc1c2cc(OC)c2c(O)ccc(C3OC(C)C(O)C(C)(O)C3O)c21 (centres undefined),T/C,"dose: 10.0 mg/kg/injection, schedule: Q04DX004 (ip), vehicle: DMSO",114 % of control
same,T/C,"dose: 20.0 mg/kg/injection, schedule: Q04DX004 (ip), vehicle: DMSO",110 % of control
same,T/C,"dose: 40.0 mg/kg/injection, schedule: Q04DX004 (ip), vehicle: DMSO",88 % of control
same,T/C,"dose: 80.0 mg/kg/injection, schedule: Q04DX004 (ip), vehicle: DMSO",118 % of control
same,T/C,"dose: 160.0 mg/kg/injection, schedule: Q04DX004 (ip), vehicle: DMSO",100 % of control
CCCCCCCCCCCC1NC(=S)NC(=O)C1C#N (centres undefined),T/C,[1],91 % of control
COc1cc(NCc2ccc3nc(N)nc(N)c3c2C)cc(OC)c1OC,T/C,"dose: 7.5 mg/kg/injection, schedule: Q04DX004 (ip), vehicle: Klucel (hydroxypropylcellulose) (HPC)",117 % of control and 122 % of control
same,T/C,"dose: 30.0 mg/kg/injection, schedule: Q04DX004 (ip), vehicle: Klucel (hydroxypropylcellulose) (HPC)",152 % of control and 154 % of control
same,T/C,"dose: 60.0 mg/kg/injection, schedule: Q04DX004 (ip), vehicle: Klucel (hydroxypropylcellulose) (HPC)",162 % of control and 172 % of control and 179 % of control
same,T/C,"dose: 120.0 mg/kg/injection, schedule: Q04DX004 (ip), vehicle: Klucel (hydroxypropylcellulose) (HPC)",167 % of control
CCOC(=O)Nc1cc2c(c(N)n1)N=C(c1ccccc1)CO2,T/C,[4],101 % of control
same,T/C,[5],107 % of control
same,T/C,[6],109 % of control
same,T/C,[7],105 % of control
COc1ccc(CNC(=O)C2C(=O)C(=O)N(Cc3ccc(OC)c(OC)c3)C2=O)cc1OC (centres undefined),T/C,"dose: 28.13 mg/kg/injection, schedule: Q04DX004 (ip), vehicle: Klucel (hydroxypropylcellulose) (HPC)",95 % of control
same,T/C,"dose: 56.25 mg/kg/injection, schedule: Q04DX004 (ip), vehicle: Klucel (hydroxypropylcellulose) (HPC)",100 % of control
same,T/C,"dose: 112.5 mg/kg/injection, schedule: Q04DX004 (ip), vehicle: Klucel (hydroxypropylcellulose) (HPC)",97 % of control
same,T/C,"dose: 225.0 mg/kg/injection, schedule: Q04DX004 (ip), vehicle: Klucel (hydroxypropylcellulose) (HPC)",94 % of control
same,T/C,"dose: 450.0 mg/kg/injection, schedule: Q04DX004 (ip), vehicle: Klucel (hydroxypropylcellulose) (HPC)",92 % of control
Cc1[nH]c(=O)[nH]c(=O)c1CCSSCCc1c(C)[nH]c(=O)[nH]c1=O,T/C,[8],90 % of control
same,T/C,[9],86 % of control
same,T/C,[10],89 % of control
same,T/C,[11],86 % of control
same,T/C,"dose: 600.0 mg/kg/injection, schedule: Q04DX004 (ip), vehicle: saline with Tween-80",90 % of control
C=C(C)[C@H]1Cc2c(ccc3c2O[C@@H]2COc4cc(OC)c(OC)cc4[C@@H]2C3=O)O1,T/C,"dose: 6.25 mg/kg/injection, schedule: Q04DX004 (ip), vehicle: saline with Tween-80",98 % of control
same,T/C,"dose: 12.5 mg/kg/injection, schedule: Q04DX004 (ip), vehicle: saline with Tween-80",95 % of control
same,T/C,[12],97 % of control
CC(O)(CSc1ccccc1)CSc1ccccc1 (tested in a mixture with another compound),T/C,"dose: 18.75 mg/kg/injection, schedule: Q04DX004 (ip), vehicle: saline with Tween-80",104 % of control
same,T/C,[8],98 % of control
same,T/C,[9],100 % of control
same,T/C,[10],101 % of control
same,T/C,[11],100 % of control
COC1CC(C)C(OC)c2cc(O)cc(c2O)NC(=O)/C(C)=C/C=C\C(C)C(OC(N)=O)/C(C)=C\C(C)C1OC (centres undefined),T/C,"dose: 0.63 mg/kg/injection, schedule: Q01DX009 (ip), vehicle: saline + alcohol",115 % of control
same,T/C,"dose: 1.25 mg/kg/injection, schedule: Q01DX009 (ip), vehicle: saline + alcohol",111 % of control
same,T/C,"dose: 1.8 mg/kg/injection, schedule: Q01DX009 (ip), vehicle: saline + alcohol",122 % of control
same,T/C,"dose: 2.5 mg/kg/injection, schedule: Q01DX009 (ip), vehicle: saline + alcohol",107 % of control
Cn1nnc2c(C(N)=O)ncn2c1=O,T/C,[2],156 % of control
same,T/C,[3],170 % of control
O=C(CN1CCOCC1)Nc1nc(-c2ccc(Cl)cc2)cs1,T/C,"dose: 6.25 mg/kg/injection, schedule: Q04DX004 (ip), vehicle: DMSO",100 % of control
same,T/C,"dose: 12.5 mg/kg/injection, schedule: Q04DX004 (ip), vehicle: DMSO",93 % of control
same,T/C,"dose: 25.0 mg/kg/injection, schedule: Q04DX004 (ip), vehicle: DMSO",121 % of control
same,T/C,[12],112 % of control
same,T/C,"dose: 50.0 mg/kg/injection, schedule: Q04DX004 (ip), vehicle: DMSO",89 % of control
same,T/C,[4],92 % of control
same,T/C,"dose: 100.0 mg/kg/injection, schedule: Q04DX004 (ip), vehicle: DMSO",87 % of control and 92 % of control
same,T/C,[5],91 % of control
same,T/C,[6],98 % of control
same,T/C,[7],105 % of control
CO[C@@]12[C@@H]3N[C@@H]3CN1C1=C(C(=O)C(NCC3CCCO3)=C(C)C1=O)[C@@H]2COC(N)=O (some centres undefined),T/C,"dose: 1.5 mg/kg/injection, schedule: Q04DX004 (ip), vehicle: distilled water + Tween-80",117 % of control
same,T/C,"dose: 3.0 mg/kg/injection, schedule: Q04DX004 (ip), vehicle: distilled water + Tween-80",118 % of control
same,T/C,"dose: 12.0 mg/kg/injection, schedule: Q04DX004 (ip), vehicle: distilled water + Tween-80",160 % of control
same,T/C,"dose: 24.0 mg/kg/injection, schedule: Q04DX004 (ip), vehicle: distilled water + Tween-80",191 % of control
COC1CCCCC1C(N)C(=O)O (centres undefined) (tested in a mixture with another compound),T/C,[12],100 % of control
same,T/C,[4],91 % of control
same,T/C,[5],95 % of control
same,T/C,[6],95 % of control
same,T/C,[7],93 % of control
Cc1c(O)/c(=C\O)c2nc3c(=O)ccc(C(=O)NCCN(C)C)c3[nH]c2c1=O,T/C,"dose: 25.0 mg/kg/injection, schedule: Q04DX004 (ip), vehicle: water",100 % of control
same,T/C,"dose: 50.0 mg/kg/injection, schedule: Q04DX004 (ip), vehicle: water",107 % of control
same,T/C,"dose: 100.0 mg/kg/injection, schedule: Q04DX004 (ip), vehicle: water",107 % of control
same,T/C,"dose: 200.0 mg/kg/injection, schedule: Q04DX004 (ip), vehicle: water",112 % of control
COC(=O)Nc1cccc(-c2nc3ccc(NC(=O)OC)cc3c(=O)n2-c2ccccc2)c1,T/C,"dose: 133.0 mg/kg/injection, schedule: Q04DX004 (ip), vehicle: Klucel (hydroxypropylcellulose) (HPC)",167 % of control
